In patent US20240067693A1, “POLYPEPTIDES AND USES THEREOF” (MEDIMMUNE LIMITED, priority 2020, published 2024):
Numbered stars: 1 amine (or outer) side, 2 acyl side, 3 side chain; on linkers, the order of the positions; unused ones are H or OH. Bridge positions count the residues as written; N and C are the ends. Square brackets hold non-standard residues; d marks the D form. Side chains are listed from the residue outwards. Peptide text beside a SMILES is read from it. * marks the point of attachment. C18 diacid = O=C(O)CCCCCCCCCCCCCCCCC(=O)*; γGlu = O=C(O)[C@H](CCC(=O)[*:2])N[*:1]; αMeF = C[C@](N)(Cc1ccccc1)C(=O)O; Dab = NCC[C@H](N)C(=O)O; Aib = CC(C)(N)C(=O)O

Tests used:
[1] = biological target: T1, human amylin receptor (calcitonin receptor co-expressed with receptor activity modifying protein, RAMP3) (hAMYR3) (Homo sapiens, UniProt O60896+P30988); assay: cAMP production in 1321N1 cells with stable recombinant expression of human amylin receptor (hAMYR3); assay type: cell-based; conditions: for Ratio (selectivity hAMYR vs hCTR, ratio of EC50 values at the two receptors): EC50 hCTR / EC50 hAMYR3; for EC50: cAMP, 1321N1 cells, assay buffer with 0.1% BSA, read-out: EC50 (pM) hAMYR3
T1 construct: expressed in transfected cells
T1 sequence (P30988 25-474): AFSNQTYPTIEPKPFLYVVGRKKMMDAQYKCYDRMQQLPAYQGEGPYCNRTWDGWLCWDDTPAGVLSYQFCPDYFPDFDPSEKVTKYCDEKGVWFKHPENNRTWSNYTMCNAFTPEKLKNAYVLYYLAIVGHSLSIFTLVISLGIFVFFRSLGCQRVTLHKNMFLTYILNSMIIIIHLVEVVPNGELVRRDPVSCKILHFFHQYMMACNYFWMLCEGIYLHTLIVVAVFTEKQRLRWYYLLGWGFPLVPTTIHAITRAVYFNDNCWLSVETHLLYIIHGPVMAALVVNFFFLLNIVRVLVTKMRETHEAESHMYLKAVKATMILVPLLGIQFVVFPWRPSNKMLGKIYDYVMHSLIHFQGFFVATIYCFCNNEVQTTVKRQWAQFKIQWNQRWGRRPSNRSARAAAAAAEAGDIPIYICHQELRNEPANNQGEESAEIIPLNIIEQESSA
T1 sequence (O60896 24-148 partner): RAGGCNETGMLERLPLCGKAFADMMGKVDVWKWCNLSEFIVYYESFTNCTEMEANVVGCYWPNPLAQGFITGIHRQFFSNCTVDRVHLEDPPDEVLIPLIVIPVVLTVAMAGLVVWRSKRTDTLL
Procedure, shortened: (§1)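 Receptor-expressing cells (human receptors in 1321N1, rat receptors in HEK) incubated 30 min at room temperature with peptide in HBSS/HEPES pH 7.4, 0.1% BSA, 0.5 mM IBMX. cAMP read by HTRF; EC50 from 4-parameter fit as % of maximal amylin or calcitonin response.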

[2] = biological target: T2, human calcitonin receptor (hCTR) (Homo sapiens, UniProt P30988); assay: cAMP production in 1321N1 cells with stable recombinant expression of human calcitonin receptor (hCTR); assay type: cell-based; conditions: cAMP, 1321N1 cells, assay buffer with 0.1% BSA; read-out: EC50 (pM) hCTR
T2 construct: expressed in transfected cells
T2 sequence (P30988 25-474): T1 sequence (P30988 25-474)
Procedure, shortened: as §1

Row | Ratio (selectivity hAMYR vs hCTR, ratio of EC50 values at the two receptors) [1] | EC50 [1] [pM] | EC50 [2] [pM] | SMILES
1 | 20 | 877 | 17700 | CC[C@H](C)[C@H](NC(=O)[C@@H]1CCCN1C(=O)CNC(=O)[C@H](Cc1ccccc1)NC(=O)[C@H](CC(N)=O)NC(=O)[C@H](CC(N)=O)NC(=O)[C@H](CO)NC(=O)[C@H](CO)NC(=O)[C@H](Cc1c[nH]cn1)NC(=O)[C@@H](NC(=O)[C@H](CC(C)C)NC(=O)[C@H](Cc1ccccc1)NC(=O)[C@H](CCN)NC(=O)[C@H](C)NC(=O)[C@H](CC(C)C)NC(=O)[C@H](CCCNC(=N)N)NC(=O)[C@H](CCC(N)=O)NC(=O)[C@@H](NC(=O)[C@H](C)NC(=O)[C@@H]1CSSC[C@H](NC(=O)[C@H](CCCCN)NC(=O)[C@@H](N)CCCCNC(=O)CC[C@H](NC(=O)CCCCCCCCCCCCCCCCC(=O)O)C(=O)O)C(=O)N[C@@H](CC(N)=O)C(=O)N[C@@H]([C@@H](C)O)C(=O)N[C@@H](C)C(=O)N[C@@H]([C@@H](C)O)C(=O)N1)[C@@H](C)O)C(C)C)C(=O)N[C@@H](CC(C)C)C(=O)N1CCC[C@H]1C(=O)N1CCC[C@H]1C(=O)N[C@H](C(=O)N[C@@H](CCC(=O)O)C(=O)N[C@H](C(=O)NCC(=O)N[C@@H](CO)C(=O)N[C@@H](CC(N)=O)C(=O)N[C@H](C(=O)N[C@@H](Cc1ccc(O)cc1)C(N)=O)[C@@H](C)O)C(C)C)[C@@H](C)O [Peptide 34] (H-K([γGlu-C18 diacid])KCNTATCATQRLA[Dab]FLVHSSNNFGPILPPTEVGSNTY-NH2; disulfide 3-8; N-terminus assumed)
2 | 23.4 | 179 | 4180 | CC[C@H](C)[C@H](NC(=O)[C@@H]1CCCN1C(=O)CNC(=O)[C@H](Cc1ccccc1)NC(=O)[C@H](CC(N)=O)NC(=O)[C@H](CCN)NC(=O)[C@H](CO)NC(=O)[C@H](CO)NC(=O)[C@H](Cc1c[nH]cn1)NC(=O)C(C)(C)NC(=O)[C@H](CC(C)C)NC(=O)[C@H](Cc1ccccc1)NC(=O)[C@H](CC(N)=O)NC(=O)[C@H](C)NC(=O)[C@H](CC(C)C)NC(=O)[C@H](CCCNC(=N)N)NC(=O)[C@H](CCC(N)=O)NC(=O)[C@@H](NC(=O)[C@H](C)NC(=O)[C@@H]1CSSC[C@H](NC(=O)[C@@H](N)CCCCNC(=O)CC[C@H](NC(=O)CCCCCCCCCCCCCCCCC(=O)O)C(=O)O)C(=O)N[C@@H](CC(N)=O)C(=O)N[C@@H]([C@@H](C)O)C(=O)N[C@@H](C)C(=O)N[C@@H]([C@@H](C)O)C(=O)N1)[C@@H](C)O)C(=O)N[C@@H](CC(C)C)C(=O)N1CCC[C@H]1C(=O)N1CCC[C@H]1C(=O)N[C@H](C(=O)N[C@@H](CC(N)=O)C(=O)N[C@H](C(=O)NCC(=O)N[C@@H](CO)C(=O)N[C@@H](CC(N)=O)C(=O)N[C@H](C(=O)N[C@@H](Cc1ccc(O)cc1)C(N)=O)[C@@H](C)O)C(C)C)[C@@H](C)O [Peptide 150, K(γE-C18diacid)[CNTATC]ATQRLANFL(Aib)HSS(Dab)NFGPILPPTNVGSNTY-amide] (H-K([γGlu-C18 diacid])CNTATCATQRLANFL[Aib]HSS[Dab]NFGPILPPTNVGSNTY-NH2; disulfide 2-7; N-terminus assumed)
3 | 2 | 218 | 468 | CC[C@H](C)[C@H](NC(=O)[C@@H]1CCCN1C(=O)CNC(=O)[C@H](Cc1ccccc1)NC(=O)[C@H](CC(N)=O)NC(=O)C(C)(C)NC(=O)[C@H](CO)NC(=O)[C@H](CO)NC(=O)[C@H](Cc1c[nH]cn1)NC(=O)[C@@H](NC(=O)[C@H](CC(C)C)NC(=O)[C@H](Cc1ccccc1)NC(=O)[C@H](Cc1c[nH]cn1)NC(=O)[C@H](C)NC(=O)[C@H](CC(C)C)NC(=O)[C@H](CCCNC(=N)N)NC(=O)[C@H](CCC(N)=O)NC(=O)[C@@H](NC(=O)[C@H](C)NC(=O)[C@@H]1CSSC[C@H](NC(=O)[C@H](CCCCN)NC(=O)[C@@H](N)CCCCNC(=O)CC[C@H](NC(=O)CCCCCCCCCCCCCCCCC(=O)O)C(=O)O)C(=O)N[C@@H](CC(N)=O)C(=O)N[C@@H]([C@@H](C)O)C(=O)N[C@@H](C)C(=O)N[C@@H]([C@@H](C)O)C(=O)N1)[C@@H](C)O)C(C)C)C(=O)N[C@@H](CC(C)C)C(=O)N1CCC[C@H]1C(=O)N1CCC[C@H]1C(=O)N[C@H](C(=O)N[C@@H](CC(N)=O)C(=O)N[C@H](C(=O)NCC(=O)N[C@@H](CO)C(=O)N[C@@H](CCC(=O)O)C(=O)N[C@H](C(=O)N[C@@H](Cc1ccc(O)cc1)C(N)=O)[C@@H](C)O)C(C)C)[C@@H](C)O [Peptide 47, K(γE-C18diacid)K[CNTATC]ATQRLAHFLVHSS(Aib)NFGPILPPTNVGSETY-amide] (H-K([γGlu-C18 diacid])KCNTATCATQRLAHFLVHSS[Aib]NFGPILPPTNVGSETY-NH2; disulfide 3-8; N-terminus assumed)
4 | 15 | 742 | 11100 | CC[C@H](C)[C@H](NC(=O)[C@@H]1CCCN1C(=O)CNC(=O)[C@](C)(Cc1ccccc1)NC(=O)[C@H](CC(N)=O)NC(=O)[C@H](CC(N)=O)NC(=O)[C@H](CO)NC(=O)[C@H](CO)NC(=O)[C@H](Cc1c[nH]cn1)NC(=O)[C@@H](NC(=O)[C@H](CC(C)C)NC(=O)[C@H](Cc1ccccc1)NC(=O)[C@H](CCN)NC(=O)[C@H](C)NC(=O)[C@H](CC(C)C)NC(=O)[C@H](CCCNC(=N)N)NC(=O)[C@H](CCC(N)=O)NC(=O)[C@@H](NC(=O)[C@H](C)NC(=O)[C@@H]1CSSC[C@H](NC(=O)[C@H](CCCCN)NC(=O)[C@@H](N)CCCCNC(=O)CC[C@H](NC(=O)CCCCCCCCCCCCCCCCC(=O)O)C(=O)O)C(=O)N[C@@H](CC(N)=O)C(=O)N[C@@H]([C@@H](C)O)C(=O)N[C@@H](C)C(=O)N[C@@H]([C@@H](C)O)C(=O)N1)[C@@H](C)O)C(C)C)C(=O)N[C@@H](CC(C)C)C(=O)N1CCC[C@H]1C(=O)N1CCC[C@H]1C(=O)N[C@H](C(=O)N[C@@H](CCC(=O)O)C(=O)N[C@H](C(=O)NCC(=O)N[C@@H](CO)C(=O)N[C@@H](CC(N)=O)C(=O)N[C@H](C(=O)N[C@@H](Cc1ccc(O)cc1)C(N)=O)[C@@H](C)O)C(C)C)[C@@H](C)O [Peptide 32, K(γE-C18diacid)K[CNTATC]ATQRLA(Dab)FLVHSSNN(αMePhe)GPILPPTEVGSNTY-amide] (H-K([γGlu-C18 diacid])KCNTATCATQRLA[Dab]FLVHSSNN[αMeF]GPILPPTEVGSNTY-NH2; disulfide 3-8; N-terminus assumed)
